Patent US10273290B2, “Hydrocarbon double-stapled stabilized HIV-1 GP41 heptad repeat domain peptides” (DANA-FARBER CANCER INSTITUTE, INC., priority 2009, dated 2019)
Bridge positions count the residues as written; N and C are the ends. Square brackets hold non-standard residues; d marks the D form. Peptide text beside a SMILES is read from it. S5 = C=CCCC[C@](C)(N)C(=O)O; Nle = CCCC[C@H](N)C(=O)O

Experiments:
HIV-1 HXBc2 = assay: HIV infectivity assay, HXBc2 strain; format: cell-based; conditions: compared to T20
Excerpt: Also the direct inhibitory activity of modified polypeptides and the antibodies targeted thereto can be quantified based upon their capacity to directly block HIV infection of CD4-positive and CCR5-expressing canine thymus cells. Recombinant HIV-1 viruses (eg. HXBc2, YU2, and additional strains available through the NIH AIDS Research and Reference Reagent Program) expressing firefly luciferase and containing the indicated envelope glycoproteins can be used to infect Cf2Th-CD4-CCR5/CXCR4 cells in the presence of serially diluted modified HIV-1 gp41 polypeptides or antibodies targeted thereto After 48 hours, the cells are lysed and luciferase activity is quantified (Si, Z. H., M. Cayabyab, and J. Sodroski, Journal of Virology, 2001. 75(9): p. 4208-4218 Si, Z. H., et al., PNAS, 2004. 101(14): p. 5036-5041). The identical experiment is performed with the amphotropic murine leukemia virus (AMLV), to monitor for any nonspecific effects of the modified polypeptides or antibodies. Similar control assays may be performed with unmodified or non-HIV polypeptides of the invention or control antibodies and are known in the art. […]

[1] = Circular dichroism, α-helical content; format: physicochemical; conditions: comparative CD spectra, 20-mer residues 626-645
Summary of the method: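 Far-UV CD spectra recorded at 20° C, 190-260 nm, 0.1 cm path, 10 accumulations. Percent α-helicity from mean residue ellipticity at 222 nm: 100×[θ]222/max[θ]222, with max[θ]222=−40,000×[1−(2.5/number of residues)]. Secondary-structure fractions also estimated by CDNN curve-fitting.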

HIV syncytia formation = assay: HIV syncytial formation assay; format: cell-based, HIV-1
Method: Functional assays can be used to evaluate the activity of the antibodies produced. In culture, multinucleated giant cells or “syncytia” form as a result of direct cell-cell fusion between HIV-1-infected and uninfected CD4-positive cells. In the syncytia formation assay, an indicator cell line expressing the CD4 receptor, and a fusogenic cell line that lacks the CD4 receptor but contains HIV-1 proteins on the surface, fuse to generate 70-100 multinucleated giant cells in culture within 48 h. Syncytia are then counted using an inverted microscope. The ability of structured gp41 peptides or antibodies targeted thereto to inhibit syncytia formation in a dose-responsive fashion is used as a functional measure of fusion inhibition, for which IC50s can be determined and compared with peptides T20 and T649, or established neutralization antibodies (Brenner, T. J., et al. The Lancet, 1991. 337(8748): p. 1001-1005; Madani, N., et al., Journal of Virology, 2007. 81(2): p. 532-538).
The truncated Stabilized Alpha Helix (SAH)-gp41 compound, SAH-gp41(626-645)(A), was successfully synthesized in high yield.

SMILES: CCCC[C@H](NC(C)=O)C(=O)N[C@H](C(=O)N[C@@H](Cc1c[nH]c2ccccc12)C(=O)N[C@@]1(C)CCCC=CCCC[C@@](C)(C(=O)N[C@@H](CCC(=O)O)C(=O)N[C@H](C(=O)N[C@@H](CC(N)=O)C(=O)N[C@@H](CC(N)=O)C(=O)N[C@@H](Cc2ccc(O)cc2)C(=O)N[C@H](C(=O)N[C@@H](CO)C(=O)N[C@@H](CC(C)C)C(=O)N[C@H](C(=O)N[C@@H](Cc2c[nH]cn2)C(=O)N[C@@H](CO)C(=O)N[C@@H](CC(C)C)C(N)=O)[C@@H](C)CC)[C@@H](C)O)[C@@H](C)CC)NC(=O)[C@H](CC(=O)O)NC(=O)[C@H](Cc2c[nH]c3ccccc23)NC(=O)[C@H](CCC(=O)O)NC1=O)[C@@H](C)O [SAH-gp41(626-645)(A)] (Ac-[Nle]TW[S5]EWD[S5]EINNYTSLIHSL-NH2; staple 4-8; N-terminus assumed)
- anti-HXBc2 activity, in words (HIV-1 HXBc2): significant anti-HXBc2 activity
- α-helical content [1]: 48%
- inhibitory activity in syncytial formation assay, in words (HIV syncytia formation): markedly enhanced inhibitory activity
